From patent US20160031909A1, “PORPHYRAZINE OPTICAL AND DUAL OPTICAL/ MR CONTRAST AND THERAPEUTIC AGENTS” (HOFFMAN/BARRETT, LLC, priority 2013, published 2016) come the findings set out here.

“And” between values parts separate entries of the source, which are not always exact repeats. Equal entries are not always repeated.

Data set [1] is described as follows: HPLC analysis of urine collected from mice. In kind it is in vivo, athymic nude mice.
Data set [2] can be described thus: Octanol-water partition coefficients by ICP-MS. In kind it is physicochemical. As to conditions: 1:1 water:1-octanol, 48 hours, Gd by ICP-MS. How it is done: Octanol-water partition coefficients (log P) were measured by ICP-MS to determine the hydrophilicity of the Pz-Gd(III) conjugates (4d, 18). The hydrophilicity of a molecule dictates cellular permeability where a balance in amphiphilicity is desired for ease of aqueous administration and maximum cellular uptake (19). Cu-Pz-Gd(III) is slightly more hydrophobic than Zn-Pz-Gd(III) and both conjugates are more hydrophobic than DOTA-Gd(III).
DOTA-Gd(I I I), Zn-Pz-Gd(III), and Cu-Pz-Gd(III) (0.5 mg) were dissolved in 1 mL of a 1:1 mixture of water:1-octanol, respectively. After shaking for 30 seconds, these tubes were placed on a rotator for gentle mixing to equilibrate for 48 hours. Gd(III) concentration in each layer was determined by ICP-MS. Partition coefficients were calculated from the equation log P=log(Co/Cw), where log P is the logarithm of the partition coefficient, Co is the concentration of Gd in the 1-octanol layer, and Cw is the concentration of Gd in the water layer.

Another data set in a line: Water solubility. In kind it is physicochemical. The protocol: The pz platform is diol pz 285, which was prepared and activated for nucleophilic substitution by arenesulfonylation to produce bis-tosylate pz 286 as previously described (13). Subsequent nucleophilic substitution of pz 286 with excess sodium azide gave diazide pz 288, which was suitable for conjugation via cycloaddition reactions with the alkyne-functionalized Gd595. (Scheme 1). The use of catalytic copper(II) sulfate in this conjugation reaction partially metallates the pz core. To address this issue, pz 288 either was metallated with ZnCl2 prior to reaction with the alkyne or a stoichiometric amount of the […] catalyst was used to ensure that the pz core was completely cuprated. Standard cycloaddition reaction conditions were subsequently used to conjugate metallated pz diazides with Gd595 to produce Zn-Pz-Gd(III) and Cu-Pz-Gd(III) conjugates, which were isolated by preparative HPLC in 52% and 57% isolated yields, respectively. Trace amounts of Zn-Pz-Gd(III) were transmetallated to Cu-Pz-Gd(III), but this small amount was removed during purification.

The subject of data set [3] is MDA-MB-231 cells. Nature of the data set: In vitro cellular uptake, Gd(III) content by ICP-MS. In kind it is cell-based. The following applies: MDA-MB-231, 24 hours, compared with equivalent DOTA-Gd(III). How it is done:
Breast tumor cells (MDA-MB-231) were treated with M-Pz-Gd(III) complexes at varying concentrations for 24 hours, washed, digested in acid, and Gd(III) content was measured by ICP-M S (FIG. 1). An M-Pz-Gd(III) dose of 50 μM corresponds to an overall Gd(III) dose of 100 μM because two Gd(III) ions are present per molecule. Cells also were treated with an equivalent amount of DOTA-Gd(III), an agent known not to cross cell membranes.
After cell harvesting, an aliquot of the cell suspensions was mixed with Guava ViaCount reagent and allowed to stain at room temperature for at least 5.0 minutes (no longer than 20 minutes). Stained samples were vortexed for 10 seconds and counted. Percent cell viability was determined via manual analysis using a Guava EasyCyte Mini Personal Cell Analyzer (PCA) and ViaCount software module. For each sample, 1000 events were acquired with dilution factors that were determined based upon optimum machine performance (about 25-70 cells/μL).
Quantification of Gd was accomplished using ICP-MS of acid digested samples. Solution samples were digested in ACS reagent grade nitric acid (70%, Sigma, St. Louis, Mo., USA) and incubated in a water bath at 70° C. for at least 2 hours to allow for complete sample digestion. […]

The subject of data set [4] is MDA-MB-231 cells. Nature of the data set: MR imaging of cell pellets at 9.4 T. In kind it is cell-based. How it is done: To determine whether the cellular uptake and molecular relativity of Cu-Pz-Gd(III) provides an effective MR contrast agent, MDA-MB-231 breast tumor cells were treated with M-Pz-Gd(III) complexes (200 μM) and centrifuged into capillaries (about 1.0 mm diameter) prior to MR imaging. […] The amount of Gd(III) per cell was determined by ICP-MS for each pellet and, as expected, T1 is inversely proportional to Gd(III) content. (FIG. 2B).
9.4 T MR imaging and T1/T2 measurements were performed on a Bruker Biospec 9.4 T imaging spectrometer fitted with shielded gradient coils at 25° C. For cell pellets images, about 2.0×10^6 MDA-MB-231 cells were incubated in 25-cm^2 T-flasks with either Cu-Pz-Gd(III), Zn-Pz-Gd(III) or DOTA-Gd(III) (400 μM wrt Gd(III)) for 24 hours, rinsed with DPBS (3×5 mL/flask), and harvested with 500 μL, of a 0.25-vol % trypLE Express solution. […] The bottom sections of the flame-sealed pipets were then scored with a glass scribe, broken into small capillaries, then imaged using a RF RES 400 1H 089/038 quadrature transmit receive 23-mm volume coil (Bruker BioSpin, Billerica, Mass., USA).
Spin-lattice relaxation times (T1) were measured using a […] (RARE-VTR) T1-map pulse sequence, with static TE (10 ms) and variable TR (100, 200, 400, 500, 750, 1000, 2500, 5000, 7500, and 10000 ms) values. […]

Take “Cu[Pz(C19H28N8O7Gd)2]. Pz=18,21-bis(2-(1H-1,2,3-triazole-4-yl) ethoxy)-tris-[1,4-dioxino[g,l,q](2R,3R)-2,3-dimethoxy-2,3-dimethyll 25H,27H-benzo[b]porphyrazine; C19H28N8O7Gd=N-methyl-2-aminoacetamide-4,7,10-tris(carboxymethyl)-1,4,7,10-tetraazacyclododecylgadolinium(III)) [Cu-Pz-Gd(III)]”: in data set [1], the “form cleared in urine” value is listed as “cleared intact”. Besides, the log P (in general, the decadic logarithm of the partition coefficient of the neutral form, usually between octanol and water) in data set [2] was −2.41. In “Water solubility”, the water solubility entry is given as “freely water soluble”. In addition, the “Cellular uptake, Gd(III) content per cell” value with MDA-MB-231 cells [3] is given as “two-fold increase”. Further, the “MR image intensity of cell pellets” value with MDA-MB-231 cells [4] (MDA-MB-231, 200 μM, vs Zn-Pz-Gd(III), DOTA-Gd(III) or vehicle) is “significant increases in image intensity”. Besides, in the data set on MDA-MB-231 cells [4] (MDA-MB-231 cell pellets, 200 μM complex (400 μM wrt Gd(III)), 24 hours, 9.4 T, 25° C.), the “contrast to noise ratio (CNR)” value was 9.336±0.335 and 9.336.
